Experimental data published in patent US8658188B2, “Radio-opaque bioactive glass materials” (Universitat Zurich, priority 2009, dated 2014).

Assay: Radiopacity assessment against an aluminum step wedge
Format: physicochemical
Conditions: paste in 0.9 wt % NaCl saline, 60% weight to volume, 1 mm thick, X-ray 65 kV, n=3
Source text: According to Waltimo et al., 2009, J Dent Res, 88, 235-8, the amount of bioactive particles per volume plays an important role in the closed environment of a root canal. To achieve a denser packing of the naturally relatively light nanomaterial (low-density powder with snow-like behaviour), uniaxial pressure of 2.6 MPa was applied for 30 seconds. […] The thus improved filler was compared to classical (flame derived) bioactive particles (no bismuth), to mechanical mixtures of bioactive particles and barium sulphate (50/wt %) and bismuth oxide (80/20 wt %; 50/50 wt %). Calcium hydroxide with or without additional barium sulphate was used as commercially available control material. Bovine dentine slices with a thickness of 1 mm served as control for the clear distinction between material and the surrounding tissue in clinical situations. Prior to use, the corresponding powder was homogeneously mixed with unbuffered physiological saline (0.9 wt % NaCl) to obtain a final weight to volume ratio of 60% (plastic limit, i.e. the maximum amount of powder per liquid to yield a paste-like suspension). A radiograph was taken after preparing the paste and placing it in a polycarbonate mould (10 mm diameter, 1 mm thick). Specimens were placed on a radio-graphic film (Digora, Finland) together with an aluminum step-wedge with a variable thickness from 0.5 mm to 6 mm (0.5 mm and 1 mm increments). […]

With `[Ca+2].[OH-].[OH-]` [calcium hydroxide, Calcium hydroxide] the “aluminum equivalent (radiopacity)” value was 0.6 mm.
